# What was measured:
# L. peruviana LCA08 = assay: Activity against macrophages infected with Leishmania amastigotes; settings: Leishmania peruviana, Macrophage, read-out: IC50 L. peruviana LCA08
# [1] = tested on: axenic amastigotes of L. amazonensis (strain MHOM/BR/76/LTB-012); assay: microbe, parasite or virus in culture; settings: Leishmania amazonensis, read-out: L. amazonensis IC50
# 3T3 cells = assay: Cell growth inhibition bioassay (sulforhodamine B); type: cell-based, mouse; settings: Mus musculus, NIH3T3; 48 h, SRB; read-out: GI50 in indicated cell line: 3T3
# In short: (§1)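 Cells were exposed to compound alongside matched solvent controls, then stained with sulforhodamine B. Percent growth inhibition was calculated from dye absorbance against the control.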
# [2] = Cytotoxicity VERO cell (Table 6); settings: African green monkey, VERO cells
# M-14 cells = assay: Cell growth inhibition bioassay (sulforhodamine B); type: cell-based, human; settings: Homo sapiens, M14; 48 h, SRB; read-out: GI50 in indicated cell line: M-14
# In short: as §1
# DU145 cells = assay: Cell growth inhibition bioassay (sulforhodamine B); type: cell-based, human; settings: Homo sapiens, DU-145; 48 h, SRB; read-out: GI50 in indicated cell line: DU145
# In short: as §1
# HT-29 cells = assay: Cell growth inhibition bioassay (sulforhodamine B); type: cell-based, human; settings: Homo sapiens, HT-29; 48 h, SRB; read-out: GI50 in indicated cell line: HT-29
# In short: as §1
# H460 cells = assay: Cell growth inhibition bioassay (sulforhodamine B); type: cell-based, human; settings: Homo sapiens, NCI-H460; 48 h, SRB; read-out: GI50 in indicated cell line: H460
# In short: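 Human cancer cells (MCF-7 breast, DU145 and PC3 prostate, H460 large cell lung) were treated with compounds. Growth relative to solvent control was quantified by SRB protein stain.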
# MCF-7 cells = assay: Cell growth inhibition bioassay (sulforhodamine B); type: cell-based, human; settings: Homo sapiens, MCF7; 48 h, SRB; read-out: GI50 in indicated cell line: MCF-7
# In short: as §1
# K562 cells = assay: Cell growth inhibition bioassay (sulforhodamine B); type: cell-based, human; settings: Homo sapiens, K562; 48 h, SRB; read-out: GI50 in indicated cell line: K562
# In short: as §1
# VERO cells = assay: Cell growth inhibition bioassay (sulforhodamine B); type: cell-based, African Green Monkey; settings: Chlorocebus sabaeus, Vero; 48 h, SRB; read-out: GI50 in indicated cell line: VERO
# In short: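 Cytotoxicity is read by sulforhodamine B colorimetry following the Skehan protocol; values are growth inhibition relative to solvent-only wells.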
compound,measurement,setting,value
C(=N/Nc1ncnc2sc3c(c12)CCCC3)/c1ccccn1 [II-21],IC50,L. peruviana LCA08,0.2 µg/mL
same,IC50,[1],200 nM
same,GI50,3T3 cells,0.013 µg/mL
same,IC50,[2],10.8 µg/mL
same,GI50,M-14 cells,0.078 µg/mL
same,GI50,DU145 cells,0.115 µg/mL
same,GI50,HT-29 cells,0.03 µg/mL
same,GI50,H460 cells,0.123 µg/mL
same,GI50,MCF-7 cells,0.026 µg/mL
same,GI50,K562 cells,0.051 µg/mL
same,GI50,VERO cells,0.156 µg/mL
